Consider two molecules from US20200353438A1, “METHOD OF FABRICATING CELL ARRAYS AND USES THEREOF” (StemoniX Inc., priority 2014, published 2020).

The structures appear in SMILES notation.

The test system of this experiment is beating H9 embryonic stem cell derived cardiomyocytes. In words: Drug dosing of beating cardiomyocyte hydrogel array, observed by camera. Format: cell-based. The following applies: 1×16 GelMa array after 3 days incubation, visual camera observation. As for the experimental part:
In one example, a Labcyte Echo Model 555 nano liter sonic dispensing system was used to deliver 2 heart drugs, Satolol an Antiarrhythmic drug and Isoproteronol a […], to the fabricated array. The drugs were diluted to 2.25 uM in cell media nutrient solution to prevent dehydration. The Echo 555 liquid handler revolutionizes liquid handling with acoustic energy. Sound waves eject precisely sized droplets from a source onto a microplate, slide or other surface suspended above the source. […] Fluids are transferred in nanoliter increments. Larger volumes are transferred at the rate of hundreds of droplets per second. By using this non contact method it minimizes any contact that could damage or kill the cells as found in other dispensing methods. It also allows for the use of very small quantities thus allowing users to screen molecules that are scarce or difficult to manufacture thus reducing cost. In addition, the X and Y position of the dispensing head can be precisely located over the N×N array location of interest thereby allowing different locations to have a drug of interest administered.
beating H9 embryonic stem cell derived cardiomyocytes were used on day 25 of differentiation. After disassociation a vial with 1 mL of suspension was produced. […] Within those it was determined that 8.38×10^5 live cells were present with tryptan blue. […]

`CC(C)NCC(O)c1ccc(O)c(O)c1` (centres unmarked) [Isoproteronol]: the “effect on refectory period (pause in beating) of irregularly beating heart cells” value is “removed the refectory period (pause in beating) of some irregularly beating heart cells”. On to `CC(C)NCC(O)c1ccc(NS(C)(=O)=O)cc1` (centres unmarked) [Satolol], for which, under “dosing with 10 nM”, the “increase in the heart cells beating” value was 30-40%.
